These results are taken from patent US6916826B2, “Substituted imidazo[1,2-a]pyridine derivatives” (Hoffman-La Roche Inc., priority 2001, dated 2005).

In the first data set the target is T1, rat mGlu 5a receptor (Rattus norvegicus, UniProt P31424).
T1 construct: expressed in transfected cells; host or cells: EBNA cells (transient transfection)
T1 sequence (P31424 21-1171 isoform P31424-2 limits assumed): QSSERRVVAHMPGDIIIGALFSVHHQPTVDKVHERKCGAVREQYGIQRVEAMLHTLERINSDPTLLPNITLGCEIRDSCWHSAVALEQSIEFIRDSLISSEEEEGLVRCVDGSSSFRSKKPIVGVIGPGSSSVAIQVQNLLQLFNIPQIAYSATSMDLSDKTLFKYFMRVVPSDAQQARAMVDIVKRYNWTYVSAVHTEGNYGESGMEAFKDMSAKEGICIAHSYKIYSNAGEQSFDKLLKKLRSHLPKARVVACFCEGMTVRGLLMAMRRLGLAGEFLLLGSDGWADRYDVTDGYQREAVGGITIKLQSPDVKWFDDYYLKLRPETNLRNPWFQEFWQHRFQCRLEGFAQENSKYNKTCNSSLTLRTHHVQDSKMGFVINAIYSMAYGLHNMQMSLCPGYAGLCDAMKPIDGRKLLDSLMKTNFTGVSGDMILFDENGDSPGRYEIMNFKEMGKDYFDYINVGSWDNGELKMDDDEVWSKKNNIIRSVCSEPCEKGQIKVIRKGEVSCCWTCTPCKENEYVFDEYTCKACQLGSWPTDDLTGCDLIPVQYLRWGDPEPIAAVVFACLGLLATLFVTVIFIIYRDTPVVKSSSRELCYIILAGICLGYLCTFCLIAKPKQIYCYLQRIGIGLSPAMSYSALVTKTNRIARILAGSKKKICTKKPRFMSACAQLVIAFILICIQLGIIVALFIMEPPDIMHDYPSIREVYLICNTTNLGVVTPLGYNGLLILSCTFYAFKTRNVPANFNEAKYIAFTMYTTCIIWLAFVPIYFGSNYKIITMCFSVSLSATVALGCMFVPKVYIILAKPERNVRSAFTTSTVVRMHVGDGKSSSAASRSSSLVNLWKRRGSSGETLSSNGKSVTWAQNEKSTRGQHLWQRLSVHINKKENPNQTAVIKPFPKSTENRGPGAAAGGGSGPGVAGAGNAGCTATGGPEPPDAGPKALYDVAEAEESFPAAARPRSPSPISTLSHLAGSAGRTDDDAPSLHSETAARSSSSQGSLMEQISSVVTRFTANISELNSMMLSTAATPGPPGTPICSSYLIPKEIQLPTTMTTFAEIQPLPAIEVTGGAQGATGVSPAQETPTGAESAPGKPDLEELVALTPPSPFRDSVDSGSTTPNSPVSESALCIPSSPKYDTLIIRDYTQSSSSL
Description: [Ca2+]i FLIPR antagonist assay on mGlu 5a transfected EBNA cells against 10 μM glutamate. The data set is classed as cell-based. As to conditions: rat mGlu 5a transiently transfected EBNA cells; against 10 μM glutamate as agonist. As to the method:
The pharmacological activity of the compounds of the present invention was tested using the following methods: cDNA encoding rat mGlu 5a receptor was transiently transfected into EBNA cells using a procedure described by E.-J. Schlaeger and K. Christensen (Transient gene expression in mammalian cells grown in serum-free suspension culture, Cytotechnology 1999, 30, 71-83). [Ca^2+]i measurements were performed on mGlu 5a transfected EBNA cells after incubation of the cells with Fluo 3-AM (obtainable by FLUKA, 0.5 μM final concentration) for 1 hour at 37° C. followed by 4 washes with assay buffer (DMEM supplemented with Hank's salt and 20 mM HEPES. [Ca^2+]i measurements were done using a fluorometric imaging plate reader (FLIPR, Molecular Devices Corporation, La Jolla, Calif., USA). When compounds were evaluated as antagonists they were tested against 10 μM glutamate as agonist.
The inhibition (antagonist) curves were fitted with a four parameter logistic equation giving IC50, and Hill coefficient using the iterative non linear curve fitting software Origin (Microcal Software Inc., Northampton, Mass., USA).
By IC50 is commonly meant the concentration needed to halve the response being measured. Lower therefore signals higher potency. In turn, `FC(F)(F)c1cccc(-c2cn3ccccc3n2)c1` [Example 17, 2-(3-Trifluoromethyl-phenyl)-imidazo[1,2-a]pyridine] yielded a half-maximal inhibitory concentration (IC50) of 2790 nM. As to `Fc1ccc(-c2cn3ccccc3n2)cc1Br` [Example 8, 2-(3-Bromo-4-fluoro-phenyl)-imidazo[1,2-a]pyridine], the IC50 came out at 690 nM. Compared with the last compound, the IC50 is about 4-fold lower.

The compound `Cc1cccc(-c2cn3ccccc3n2)c1` [Example 14, 2-(3-Methyl-phenyl)-imidazo[1,2-a]pyridine] gave a concentration for half-maximal inhibition (IC50) of 1550 nM.

Regarding `c1ccc2c(-c3cn4ccccc4n3)csc2c1` [Example 16, 2-Benzo[b]thiophen-3-yl-imidazo[1,2-a]pyridine], the IC50 is 2760 nM. Still for that read-out and setting: under `COc1ccc(-c2cn3ccc(C)cc3n2)cc1OC` [Example 2, 2-(3,4-Dimethoxy-phenyl)-7-methyl-imidazo[1,2-a]pyridine] stands 1880 nM; under `c1ccn2cc(-c3ccc4c(c3)CCO4)nc2c1` [Example 18, 2-(2,3-Dihydro-benzofuran-5-yl)-imidazo[1,2-a]pyridine], 2860 nM. Same read-out and setting: then `COc1cc(-c2cn3ccccc3n2)ccc1OCc1ccccc1` [Example 9, 2-(4-Benzyloxy-3-methoxy-phenyl)-imidazo[1,2-a]pyridine], with 830 nM; and `COc1ccn2cc(-c3ccc(OC)c(OC)c3)nc2c1` [Example 5, 2-(3,4-Dimethoxy-phenyl)-7-methoxy-imidazo[1,2-a]pyridine], with 3300 nM.

The compound `Cc1ccc(-c2cn3ccccc3n2)cc1C.Cl` [Example 6, 2-(3,4-Dimethyl-phenyl)-imidazo[1,2-a]pyridine hydrochloride] returned an IC50 of 37 nM.

`COc1ccc(-c2cn3ccccc3n2)cc1OC` [Example 3, 2-(3,4-Dimethoxy-phenyl)-imidazo[1,2-a]pyridine] returned an IC50 of 6800 nM. Take `COc1ccn2cc(-c3ccc(C)c(C)c3)nc2c1` [Example 4, 2-(3,4-Dimethyl-phenyl)-7-methoxy-imidazo[1,2-a]pyridine]: the IC50 turned out to be 140 nM. Against the preceding compound, the IC50 is about 49-fold lower. The compound `Cc1ccn2cc(-c3ccc(C)c(C)c3)nc2c1` [Example 7, 2-(3,4-Dimethyl-phenyl)-7-methyl-imidazo[1,2-a]pyridine] registered an IC50 of 280 nM. This IC50 is about 2-fold higher than that of the compound before.

The compound `Fc1cccc(-c2cn3ccccc3n2)c1` [Example 19, 2-(3-Fluoro-phenyl)-imidazo[1,2-a]pyridine] registered an IC50 of 3410 nM. This IC50 is about 12-fold higher than that of the compound before. As for `Cc1ccc(-c2cn3cc(C)ccc3n2)cc1` [Example 28, 6-Methyl-2-(4-methyl-phenyl)-imidazo[1,2-a]pyridine], the IC50 is 10000 nM. This IC50 is about 2.9-fold higher than that of the compound before. Take `Cc1ccc(-c2cn3ccccc3n2)s1` [Example 21, 2-(5-Methyl-thiophen-2-yl)-imidazo[1,2-a]pyridine]: the IC50 amounted to 6130 nM. For the compound `Cc1cc(-c2cn3ccccc3n2)c(C)s1` [Example 24, 2-(2,5-Dimethyl-thiophen-3-yl)-imidazo[1,2-a]pyridine], the IC50 was determined as 580 nM. For `COc1cccc(-c2cn3ccccc3n2)c1` [Example 25, 2-(3-Methoxy-phenyl)-imidazo[1,2-a]pyridine], the IC50 was determined as 1650 nM. `Cc1ccc(-c2cn3ccccc3n2)cc1` [Example 23, 2-(4-Methyl-phenyl)-imidazo[1,2-a]pyridine] displayed an IC50 of 8770 nM. Compared with the last compound, the IC50 is about 5.3-fold higher. In turn, `Brc1cccc(-c2cn3ccccc3n2)c1` [Example 11, 2-(3-Bromo-phenyl)-imidazo[1,2-a]pyridine] yielded a concentration for half-maximal inhibition (IC50) of 950 nM. For `Cc1ccn2cc(-c3ccccc3)nc2c1` [Example 22, 7-Methyl-2-phenyl-imidazo[1,2-a]pyridine], the IC50 worked out at 7500 nM. For the compound `Ic1cccc(-c2cn3ccccc3n2)c1` [Example 12, 2-(3-Iodo-phenyl)-imidazo[1,2-a]pyridine], the 50% inhibitory concentration (IC50) came out at 970 nM. Still for that read-out and setting: then `c1ccn2cc(-c3ccc4c(c3)OCCO4)nc2c1` [Example 27, 2-(2,3-Dihydro-benzo [1,4]dioxin-6-yl)-imidazo[1,2-a]pyridine], with 990 nM.

For `c1ccc2oc(-c3cn4ccccc4n3)cc2c1` [Example 15, 2-Benzofuran-2-yl-imidazo[1,2-a]pyridine], the IC50 is 1660 nM. `COc1ccc(-c2cn3cc(C)ccc3n2)cc1OC` [Example 26, 2-(3,4-Dimethoxy-phenyl)-6-methyl-imidazo[1,2-a]pyridine] yielded an IC50 of 8300 nM. On to `O=[N+]([O-])c1cccc(-c2cn3ccccc3n2)c1` [Example 29, 2-(3-Nitro-phenyl)-imidazo[1,2-a]pyridine], for which the IC50 stood at 10000 nM. `Clc1cccc(-c2cn3ccccc3n2)c1` [Example 13, 2-(3-Chloro-phenyl)-imidazo[1,2-a]pyridine]: the IC50 is 1230 nM.

Take `Cc1ccc(-c2cn3ccc(Cl)cc3n2)cc1C` [Example 1, 7-Chloro-2-(3,4-dimethyl-phenyl)-imidazo[1,2-a]pyridine]: the IC50 came out at 100 nM. This IC50 is about 12-fold lower than that of the compound before. For `c1ccn2cc(-c3ccc4c(c3)CCC4)nc2c1` [Example 10, 2-Indan-5-yl-imidazo[1,2-a]pyridine], the IC50 is 930 nM. On to `CCc1ccn2cc(-c3ccc(C)c(C)c3)nc2c1` [Example 20, 2-(3,4-Dimethyl-phenyl)-7-ethyl-imidazo[1,2-a]pyridine], for which the half-inhibitory concentration (IC50) turned out to be 3640 nM. Compared with the last compound, the IC50 is about 3.9-fold higher.

The data set is the same for the next values; noted with them: statement in words, compared with compounds of formula I.
For `Cc1ccc(-c2nc3ccc(C)cn3c2CC(=O)N(C)C)cc1` [N,N,6-trimethyl-2-(4-methylphenyl)-imidazo[1,2-a]pyridine-3-acetamide, reference compound], the “affinity toward the mGluR5 receptor” value is “does not possess the affinity toward the mGluR5 receptor”.

The target of a further data set is central benzodiazepine receptors. Description: Inhibition of binding of tritiated flumazenil to benzodiazepine receptors in rat cortex. To be noted: [3H]flumazenil, Cheng & Prusoff. As to the method:
The affinity of compounds of formula I to the central benzodiazepine receptors in vitro was also tested using standard methods as for example described in Nature 1981, 294, 763-765 and J. Neurochemistry 1981, 37, 714-722. According to these methods, the inhibition of the binding of tritiated flumazenil to the specific benzodiazepine receptors in the cortex of rats by the respective test substances is determined and the inhibition dissociation constant (Ki) of each test compound is determined according to the method of Cheng & Prusoff (1973).
Turning to `Cc1ccc(-c2cn3ccccc3n2)cc1C.Cl` [Example 6, 2-(3,4-Dimethyl-phenyl)-imidazo[1,2-a]pyridine hydrochloride], the “pKi (negative logarithm of the Ki)” value was 5.2.

Tested on in a further data set: not given
Test: not given
Settings: not given
A word on the melting point: it is the temperature of the solid-liquid transition. For `COc1ccc(-c2cn3ccc(C)cc3n2)cc1OC` [Example 2, 2-(3,4-Dimethoxy-phenyl)-7-methyl-imidazo[1,2-a]pyridine], the melting point was determined as 163 °C.

For `COc1ccn2cc(-c3ccc(OC)c(OC)c3)nc2c1` [Example 5, 2-(3,4-Dimethoxy-phenyl)-7-methoxy-imidazo[1,2-a]pyridine], the melting point amounted to 142 °C. For `COc1ccn2cc(-c3ccc(C)c(C)c3)nc2c1` [Example 4, 2-(3,4-Dimethyl-phenyl)-7-methoxy-imidazo[1,2-a]pyridine], the melting point is 175 °C. Take `Cc1ccc(-c2cn3ccc(Cl)cc3n2)cc1C` [Example 1, 7-Chloro-2-(3,4-dimethyl-phenyl)-imidazo[1,2-a]pyridine]: the melting point turned out to be 144 °C.

For another data set, the system named is central benzodiazepine receptors.
Test: not given
As to conditions: from cited reference (Eur. J. Pharmacol. 1986, 130(3), 257-263); cited from earlier work.
Take `Cc1ccc(-c2nc3ccc(C)cn3c2CC(=O)N(C)C)cc1` [N,N,6-trimethyl-2-(4-methylphenyl)-imidazo[1,2-a]pyridine-3-acetamide, reference compound]: the “agonist properties at central benzodiazepine receptors” value is given as “possesses agonist properties at central benzodiazepine receptors”.
